Assay results reported in article PMC10786919, “Design-rules for stapled peptides with in vivo activity and their application to Mdm2/X antagonists” (Nature Communications, 2024).
Values after ≈ are worked out from the molar mass of the structure shown. Positions of bridges follow the written chain, without caps; N, C: chain ends. Non-standard residues stand in square brackets, D forms with d. Residues, ends and D or L forms follow the SMILES beside them. Lys(N3) = [N-]=[N+]=NCCCC[C@H](N)C(=O)O; R8 = C=CCCCCCC[C@@](C)(N)C(=O)O; Cba = N[C@@H](CC1CCC1)C(=O)O; S5 = C=CCCC[C@](C)(N)C(=O)O; βAla = NCCC(=O)O

Experiments:
[1] = Lactate dehydrogenase (LDH) release assay; assay type: cell-based
Outline: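 Read-out was lactate dehydrogenase release, reflecting loss of membrane integrity, in reporter-engineered HCT116 cells (p53-responsive β-lactamase) seeded at 8000 cells per well. Final DMSO was 0.5%, and reported values are geometric means from three or more biological repeats.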

[2] = Solubility assay (kinetic solubility, PBS pH 7); assay type: physicochemical; details: pH 7, PBS; for solubility kinetic: pH 7, aqueous buffer, kinetic from dmso stock, read-out: Solubility
Method: The standard reference solutions were prepared by diluting the 10 mM stock in 10:80:10 solution of acetonitrile:methanol:DMSO to 100 µM.
The solubility value is calculated by the following equation:
Solubility [µM] = (Peak area of sample/ Peak area of standard) (Standard concentration)

in vitro = details: Nanoclick permeability assay EC50
Source text: Further, there have been several literature reports[18]–[20] that highlight that the combination of hydrophobic character and positive charge can result in mast cell degranulation (MCD), a potentially fatal condition[18]–[20]. […] The NanoClick assay[22] determines permeability of azide-labeled peptides by combining intracellular copper-free click chemistry with NanoBRET technology. Specifically, if an azido-peptide achieves cytosolic exposure, it will react with a cyclooctyne-decorated Halotag construct that is fused with nanoluciferase. This reaction blocks the click labelling of a subsequently added azido-labeled acceptor dye, thus decreasing the NanoBRET signal in a manner that is target-binding agnostic.
This assay was previously described in detail. The assay was performed in 384-well white assay plates (PerkinElmer CUSG03874) using assay-ready frozen cells that had been transiently transfected with the NanoLuc-HaloTag vector that were thawed at plated in complete media at a density of 6000 cells/ well and incubated at 37 °C 5% CO2 overnight. DIBAC-CA was diluted in assay buffer (OptiMem without phenol red + 1% FBS) and added to cells at a final concentration of 3 μM and incubated at 37 °C 5% CO2 for 1 h. Cells were subsequently centrifuged using a BlueWasher instrument (Blue Cat Bio) to remove the DIBAC-CA solution and washed two times with HBSS (Ca2 + , Mg2 + ). A volume of 30 μL of assay buffer was added back to cell plates. Peptides were serially diluted 4-fold in DMSO with a Hamilton Star apparatus and then delivered into assay plates with an acoustic liquid handler Labcyte ECHO (300 nl, 1% DMSO in-well concentration). After incubating cells with peptide for the desired time (4 or 18 h), the HaloTag ligand, NanoBret618-azide, was added to each well at a final concentration of 10 μM. […] Following addition of NanoBRET Nano-Glo Substrate, donor emission (450 nm) and acceptor emission (610 nm) were measured using an Envision instrument (PerkinElmer).

[3] = Experimental LogD (partition coefficient); details: for logD: not stated, Partition Coeff LogD

SMILES | EC50 ([1]; LDH: Cytotoxicity assay EC50) [µM] | solubility kinetic [2] [µM] | cell entry EC50 (in vitro) [µM] | logD [3] | EC50 ([1]; LDH: Cytotoxicity assay: EC50) [µM] | Solubility [2] | Partition Coeff LogD [3]
CC(C)C[C@@H]1NC(=O)[C@H](C)NC(=O)[C@H](Cc2c[nH]c3ccccc23)NC(=O)[C@H](Cc2ccc(O)cc2)NC(=O)[C@H](CCC(=O)O)NC(=O)[C@](C)(NC(=O)[C@H](Cc2ccccc2)NC(=O)[C@H](CO)NC(=O)[C@@H](NC(=O)[C@H](CO)NC(=O)CNC(=O)[C@H](CO)NC(=O)[C@H](CCCCN=[N+]=[N-])NC(=O)[C@H](CCC(=O)O)NC(=O)[C@H](CCC(=O)O)NC(=O)[C@@H](N)CCC(=O)O)[C@@H](C)O)CCCCCCC=CCCC[C@@](C)(C(=O)N[C@@H](CCC(=O)O)C(=O)N[C@@H](CC(N)=O)C(N)=O)NC(=O)[C@H](CC(C)C)NC1=O [MP-949] (H-EEE[Lys(N3)]SGSTSF[R8]EYWALL[S5]EN-NH2; staple 11-18) | > 50 | 104 (≈ 253 µg/mL) | 4.35 | 1.66 | – | – | –
CC(=O)N[C@@H](CCC(=O)O)C(=O)N[C@@H](CCC(=O)O)C(=O)N[C@@H](CCC(=O)O)C(=O)N[C@@H](CCCCN=[N+]=[N-])C(=O)NCCC(=O)N[C@@H](CC(C)C)C(=O)N[C@H](C(=O)N[C@@H](Cc1ccccc1)C(=O)N[C@]1(C)CCCCCCC=CCCC[C@@](C)(C(=O)N[C@@H](CCC(=O)O)C(=O)N[C@@H](CC(N)=O)C(=O)N[C@@H](Cc2ccccc2)C(N)=O)NC(=O)[C@H](CC2CCC2)NC(=O)[C@H](CCC(N)=O)NC(=O)[C@H](C)NC(=O)[C@H](Cc2c[nH]c3ccccc23)NC(=O)[C@H](Cc2ccc(O)cc2)NC(=O)[C@H](CCC(=O)O)NC1=O)[C@@H](C)O [MP-763] (Ac-EEE[Lys(N3)][βAla]LTF[R8]EYWAQ[Cba][S5]ENF-NH2; staple 9-16) | – | 156 (≈ 393 µg/mL) | 1.14 | 1.86 | > 50.7 | – | –
CC(=O)N[C@@H](CCCCN=[N+]=[N-])C(=O)NCCC(=O)N[C@@H](CC(C)C)C(=O)N[C@H](C(=O)N[C@@H](Cc1ccccc1)C(=O)N[C@]1(C)CCCCCCC=CCCC[C@@](C)(C(=O)N2CCC[C@H]2C(=O)N2CCC[C@H]2C(=O)N2CCC[C@H]2C(=O)N2CCC[C@H]2C(=O)N2CCC[C@H]2C(=O)N2CCC[C@H]2C(N)=O)NC(=O)[C@H](CC2CCC2)NC(=O)[C@H](CCC(N)=O)NC(=O)[C@H](C)NC(=O)[C@H](Cc2c[nH]c3ccccc23)NC(=O)[C@H](Cc2ccc(O)cc2)NC(=O)[C@H](CCC(=O)O)NC1=O)[C@@H](C)O [MP-093] | > 50.7 | 156 (≈ 363 µg/mL) | 1.38 | 2.28 | – | – | –
CC(C)C[C@@H]1NC(=O)[C@H](C)NC(=O)[C@H](Cc2c[nH]c3ccccc23)NC(=O)[C@H](Cc2ccc(O)cc2)NC(=O)[C@H](CCC(=O)O)NC(=O)[C@](C)(NC(=O)[C@H](Cc2ccccc2)NC(=O)[C@H](CO)NC(=O)[C@@H](NC(=O)[C@H](CO)NC(=O)CNC(=O)[C@H](CO)NC(=O)[C@H](CCCCN=[N+]=[N-])NC(=O)[C@H](CCC(=O)O)NC(=O)[C@H](CCC(=O)O)NC(=O)[C@@H](N)CCC(=O)O)[C@@H](C)O)CCCCCCC=CCCC[C@@](C)(C(N)=O)NC(=O)[C@H](CC(C)C)NC1=O [MP-948] (H-EEE[Lys(N3)]SGSTSF[R8]EYWALL[S5]-NH2; staple 11-18) | > 50 | 112 (≈ 245 µg/mL) | > 10 | 1.48 | – | – | –
CC[C@H](C)[C@H](NC(=O)[C@H](CC(C)C)NC(=O)[C@H](Cc1ccccc1)NC(=O)[C@@H](N)Cc1ccccc1)C(=O)N1CCC[C@H]1C(=O)N[C@@H](CCCCN)C(=O)NCC(=O)N[C@@H](CCCNC(=N)N)C(=O)N[C@@H](CCCNC(=N)N)C(=O)N[C@@H](CCCNC(=N)N)C(=O)N[C@@H](CCCNC(=N)N)C(=O)N[C@@H](CCCNC(=N)N)C(=O)N[C@@H](CCCNC(=N)N)C(=O)N[C@@H](CCCNC(=N)N)C(=O)N[C@@H](CCCNC(=N)N)C(=O)N[C@@H](CCCNC(=N)N)C(=O)N[C@@H](CCCCN=[N+]=[N-])C(=O)NCCC(=O)N[C@@H](CC(C)C)C(=O)N[C@H](C(=O)N[C@@H](Cc1ccccc1)C(=O)N[C@]1(C)CCCCCCC=CCCC[C@@](C)(C(=O)N[C@@H](CO)C(=O)N[C@@H](C)C(=O)N[C@@H](C)C(N)=O)NC(=O)[C@H](CC2CCC2)NC(=O)[C@H](CCC(N)=O)NC(=O)[C@H](C)NC(=O)[C@H](Cc2c[nH]c3ccccc23)NC(=O)[C@H](Cc2ccc(O)cc2)NC(=O)[C@H](CCC(=O)O)NC1=O)[C@@H](C)O [MP-656] (H-FFLIPKGRRRRRRRRR[Lys(N3)][βAla]LTF[R8]EYWAQ[Cba][S5]SAA-NH2; staple 22-29) | – | – | 0.544 | – | – | Poorly Behaved | Poorly Behaved
CC(C)C[C@@H]1NC(=O)[C@H](C)NC(=O)[C@H](Cc2c[nH]c3ccccc23)NC(=O)[C@H](Cc2ccc(O)cc2)NC(=O)[C@H](CCC(=O)O)NC(=O)[C@](C)(NC(=O)[C@H](Cc2ccccc2)NC(=O)[C@H](CO)NC(=O)[C@@H](NC(=O)[C@H](CO)NC(=O)CNC(=O)[C@H](CO)NC(=O)[C@@H](N)CCCCN=[N+]=[N-])[C@@H](C)O)CCCCCCC=CCCC[C@@](C)(C(=O)N[C@@H](CCC(=O)O)C(=O)N[C@@H](CCC(=O)O)C(=O)N[C@@H](CCC(=O)O)C(N)=O)NC(=O)[C@H](CC(C)C)NC1=O [MP-951] (H-[Lys(N3)]SGSTSF[R8]EYWALL[S5]EEE-NH2; staple 8-15) | > 50 | 119 (≈ 261 µg/mL) | 2.15 | 1.94 | – | – | –
CC(=O)N[C@@H](CCC(=O)O)C(=O)N[C@@H](CCC(=O)O)C(=O)N[C@@H](CCCCN=[N+]=[N-])C(=O)NCCCCCC(=O)N[C@H](C(=O)N[C@@H](CO)C(=O)N[C@@H](Cc1ccccc1)C(=O)N[C@]1(C)CCCCCCC=CCCC[C@@](C)(C(N)=O)NC(=O)[C@H](CC(C)C)NC(=O)[C@H](CC(C)C)NC(=O)[C@H](C)NC(=O)[C@H](Cc2c[nH]c3ccccc23)NC(=O)[C@H](Cc2ccc(O)cc2)NC(=O)[C@H](CCC(=O)O)NC1=O)[C@@H](C)O [MP-661] | > 50 | 27 (≈ 53.7 µg/mL) | 0.546 | 2.02 | – | – | –
C[C@H](NC(=O)[C@H](C)NC(=O)[C@H](C)NC(=O)[C@]1(C)CCCC=CCCCCCC[C@@](C)(NC(=O)[C@H](Cc2ccccc2)NC(=O)[C@@H](NC(=O)[C@H](C)NC(=O)CCNC(=O)[C@H](CCCCN=[N+]=[N-])NC(=O)[C@H](C)NC(=O)[C@H](C)NC(=O)[C@H](CCCNC(=N)N)NC(=O)[C@H](CCCNC(=N)N)NC(=O)[C@H](CO)NC(=O)[C@H](CCCNC(=N)N)NC(=O)[C@H](CO)NC(=O)[C@H](CCCNC(=N)N)NC(=O)CN)[C@@H](C)O)C(=O)N[C@@H](C)C(=O)N[C@@H](Cc2ccc(O)cc2)C(=O)N[C@@H](Cc2c[nH]c3ccccc23)C(=O)N[C@@H](C)C(=O)N[C@@H](C)C(=O)N[C@@H](CC2CCC2)C(=O)N1)C(N)=O [MP-878] (H-GRSRSRRAA[Lys(N3)][βAla]ATF[R8]AYWAA[Cba][S5]AAA-NH2; staple 15-22) | – | – | 2.1 | 2.81 | – | Poorly Behaved | –
